Inhibition data for 19 molecules are collected here from ChEMBL document CHEMBL1158381, “Molecular properties of psychopharmacological drugs determining non-competitive inhibition of 5-HT3A receptors” (Eur J Med Chem, 2009).

For the test, the target named is T1, 5-hydroxytryptamine receptor 3A (Homo sapiens) (UniProt P46098).
T1 sequence (whole entry): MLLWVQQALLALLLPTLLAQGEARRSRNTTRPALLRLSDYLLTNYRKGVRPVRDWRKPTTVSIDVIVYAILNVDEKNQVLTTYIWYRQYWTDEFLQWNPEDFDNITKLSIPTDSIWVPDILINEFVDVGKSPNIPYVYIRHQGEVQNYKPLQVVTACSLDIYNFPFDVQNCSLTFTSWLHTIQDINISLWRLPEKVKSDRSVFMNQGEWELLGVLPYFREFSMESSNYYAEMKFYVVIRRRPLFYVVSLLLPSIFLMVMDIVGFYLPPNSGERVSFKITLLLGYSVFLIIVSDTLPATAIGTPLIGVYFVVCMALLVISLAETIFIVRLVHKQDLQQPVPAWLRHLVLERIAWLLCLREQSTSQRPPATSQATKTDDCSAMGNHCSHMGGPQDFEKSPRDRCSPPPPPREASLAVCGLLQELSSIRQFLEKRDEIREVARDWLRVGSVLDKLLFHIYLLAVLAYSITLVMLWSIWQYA
The experiment in a line: Antagonist activity at human 5HT3A receptor expressed in HEK293 cells assessed as inhibition of serotonin-induced inward Na+ current at >= 10 uM. Type of test: functional, cell-based.

Consider `Cc1nc2n(c(=O)c1CCN1CCC(c3noc4cc(F)ccc34)CC1)CCCC2`, for which the inhibition was under 50%.

`NC(=O)N1c2ccccc2CCc2ccccc21`: the inhibition is under 50%.

As to `OCCN1CCN(CCCN2c3ccccc3Sc3ccc(C(F)(F)F)cc32)CC1`, the inhibition was over 50%.

On to `c1ccc2c(c1)Nc1ccccc1S2`, for which the inhibition was under 50%.

Consider `CCOc1ccccc1O[C@@H](c1ccccc1)[C@@H]1CNCCO1`, for which the inhibition was over 50%.

Consider `COc1ccc2c(c1)N(C[C@H](C)CN(C)C)c1ccccc1S2`, for which the inhibition was under 50%.

Regarding `NC(=O)N1c2ccccc2C=Cc2ccccc21`, the inhibition is under 50%.

Regarding `CNCCCN1c2ccccc2CCc2ccccc21`, the inhibition was over 50%.

For `O=C(NCCN1CCOCC1)c1ccc(Cl)cc1`, the inhibition is under 50%.

Turning to `CSc1ccc2c(c1)N(CCC1CCCCN1C)c1ccccc1S2` (centres undefined), the inhibition is over 50%.

For the molecule `c1ccc2c(c1)CCc1ccccc1C2`, the inhibition is under 50%.

For `CNCCC(Oc1ccc(C(F)(F)F)cc1)c1ccccc1` (centres undefined), the inhibition is over 50%.

Regarding `CN(C)CCCN1c2ccccc2CCc2ccccc21`, the inhibition is over 50%.

`OCCN1CCN(CCC=C2c3ccccc3Sc3ccc(C(F)(F)F)cc32)CC1`: the inhibition was over 50%.

Take `FC(F)(F)c1ccc2c(c1)Nc1ccccc1S2`: the inhibition is under 50%.

On to `c1ccc2c(c1)CCc1ccccc1N2`, for which the inhibition is over 50%.

In the case of `CC(CN(C)C)CN1c2ccccc2CCc2ccccc21` (centres undefined), the inhibition was over 50%.

As for `c1ccc2nc3ccccc3cc2c1`, the inhibition was under 50%.

Turning to `O=C(CCCN1CCC(O)(c2ccc(Cl)cc2)CC1)c1ccc(F)cc1`, the inhibition was under 50%.

What is called inhibition is the change of the read-out against control, counted positive when it falls.
